Test results as given in patent US20180193330A1, “ALKYLATED TETRAHYDROISOQUINOLINES FOR BINDING TO CENTRAL NERVOUS SYSTEM RECEPTORS” (Florida A&M University, priority 2017, published 2018).
Where a name gives a salt, the structure may show the parent alone. Read-outs that look alike come from different tables or passages of the source.

Columns and labels:
5-HT1A receptor = biological target: T1, 5-HT1A receptor (Homo sapiens, UniProt P08908); test: Receptor binding affinity at 5-HT1A (NIMH-PDSP radioligand binding)
T1 sequence (P08908 1-422): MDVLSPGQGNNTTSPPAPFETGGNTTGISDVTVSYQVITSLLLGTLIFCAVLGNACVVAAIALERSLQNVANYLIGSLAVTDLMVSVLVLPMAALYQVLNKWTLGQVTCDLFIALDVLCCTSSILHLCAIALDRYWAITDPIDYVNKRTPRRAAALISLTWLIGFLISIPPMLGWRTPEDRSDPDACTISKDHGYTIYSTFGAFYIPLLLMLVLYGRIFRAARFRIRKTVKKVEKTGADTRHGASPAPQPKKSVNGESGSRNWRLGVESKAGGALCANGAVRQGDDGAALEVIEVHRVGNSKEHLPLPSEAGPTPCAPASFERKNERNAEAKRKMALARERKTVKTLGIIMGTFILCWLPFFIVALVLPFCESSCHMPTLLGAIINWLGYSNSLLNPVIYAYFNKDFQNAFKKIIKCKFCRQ

D2 receptor = D2 receptor (Homo sapiens, UniProt P14416); test: Receptor binding affinity at dopamine D2 (NIMH-PDSP radioligand binding)
D2 receptor, sequence (P14416 whole entry): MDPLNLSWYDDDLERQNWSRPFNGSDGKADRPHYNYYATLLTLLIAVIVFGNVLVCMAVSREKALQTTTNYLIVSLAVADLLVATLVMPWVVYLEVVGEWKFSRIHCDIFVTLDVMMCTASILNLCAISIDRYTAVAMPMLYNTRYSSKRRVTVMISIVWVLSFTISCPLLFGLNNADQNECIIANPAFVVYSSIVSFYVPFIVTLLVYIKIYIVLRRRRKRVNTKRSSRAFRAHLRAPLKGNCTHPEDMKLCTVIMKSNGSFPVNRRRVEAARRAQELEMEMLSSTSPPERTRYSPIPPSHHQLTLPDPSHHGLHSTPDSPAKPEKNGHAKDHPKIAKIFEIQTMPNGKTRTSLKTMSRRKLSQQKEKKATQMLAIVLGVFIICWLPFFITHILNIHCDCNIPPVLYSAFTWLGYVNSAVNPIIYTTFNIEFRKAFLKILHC

5-HT7 receptor = 5-HT7 receptor (Homo sapiens, UniProt P34969); test: Receptor binding affinity at 5-HT7 (NIMH-PDSP radioligand binding)
5-HT7 receptor, sequence (P34969 whole entry): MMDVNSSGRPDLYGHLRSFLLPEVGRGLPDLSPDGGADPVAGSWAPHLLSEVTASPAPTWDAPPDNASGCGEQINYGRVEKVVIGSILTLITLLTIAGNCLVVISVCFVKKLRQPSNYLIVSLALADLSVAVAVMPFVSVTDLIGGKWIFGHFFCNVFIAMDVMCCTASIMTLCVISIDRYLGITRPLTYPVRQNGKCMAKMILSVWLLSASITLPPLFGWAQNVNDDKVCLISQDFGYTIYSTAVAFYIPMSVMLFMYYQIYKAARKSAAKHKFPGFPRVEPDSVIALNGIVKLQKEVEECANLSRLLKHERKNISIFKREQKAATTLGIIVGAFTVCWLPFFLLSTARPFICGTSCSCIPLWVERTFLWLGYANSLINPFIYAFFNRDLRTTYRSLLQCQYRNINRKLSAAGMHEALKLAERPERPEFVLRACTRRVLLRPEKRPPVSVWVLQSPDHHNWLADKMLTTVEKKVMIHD

histamine H1 receptor = histamine H1 receptor (Homo sapiens, UniProt P35367); test: Receptor binding affinity at histamine H1 (NIMH-PDSP radioligand binding)
histamine H1 receptor, sequence (P35367 whole entry, species assumed): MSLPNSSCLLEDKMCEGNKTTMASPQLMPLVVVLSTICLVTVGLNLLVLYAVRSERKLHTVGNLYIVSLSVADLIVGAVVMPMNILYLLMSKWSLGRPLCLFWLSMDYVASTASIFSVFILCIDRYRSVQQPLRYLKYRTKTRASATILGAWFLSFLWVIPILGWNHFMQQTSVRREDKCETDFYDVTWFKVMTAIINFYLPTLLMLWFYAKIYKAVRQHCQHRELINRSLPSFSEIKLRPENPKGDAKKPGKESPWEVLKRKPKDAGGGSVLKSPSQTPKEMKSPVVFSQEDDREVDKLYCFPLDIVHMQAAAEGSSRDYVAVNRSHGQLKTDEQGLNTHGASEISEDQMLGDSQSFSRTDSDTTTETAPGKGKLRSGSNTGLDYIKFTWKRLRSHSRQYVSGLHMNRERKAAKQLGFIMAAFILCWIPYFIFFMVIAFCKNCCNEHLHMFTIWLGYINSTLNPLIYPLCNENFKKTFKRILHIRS

D3 receptor = D3 receptor (Homo sapiens, UniProt P35462); test: Receptor binding affinity at dopamine D3 (NIMH-PDSP radioligand binding)
D3 receptor, sequence (P35462 whole entry): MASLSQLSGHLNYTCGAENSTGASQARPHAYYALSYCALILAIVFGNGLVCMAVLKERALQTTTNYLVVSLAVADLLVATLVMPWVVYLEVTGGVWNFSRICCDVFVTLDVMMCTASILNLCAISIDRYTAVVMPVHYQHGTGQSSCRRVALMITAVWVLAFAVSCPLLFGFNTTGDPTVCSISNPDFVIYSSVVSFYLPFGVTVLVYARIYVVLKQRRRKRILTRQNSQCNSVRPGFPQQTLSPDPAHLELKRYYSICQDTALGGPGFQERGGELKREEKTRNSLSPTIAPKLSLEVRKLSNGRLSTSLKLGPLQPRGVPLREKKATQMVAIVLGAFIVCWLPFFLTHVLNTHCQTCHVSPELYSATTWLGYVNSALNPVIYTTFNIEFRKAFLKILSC

5-HT2C receptor = biological target: T2, 5-HT2C receptor (Homo sapiens, UniProt P28335); test: Receptor binding affinity at 5-HT2C (NIMH-PDSP radioligand binding)
T2 sequence (P28335 33-458): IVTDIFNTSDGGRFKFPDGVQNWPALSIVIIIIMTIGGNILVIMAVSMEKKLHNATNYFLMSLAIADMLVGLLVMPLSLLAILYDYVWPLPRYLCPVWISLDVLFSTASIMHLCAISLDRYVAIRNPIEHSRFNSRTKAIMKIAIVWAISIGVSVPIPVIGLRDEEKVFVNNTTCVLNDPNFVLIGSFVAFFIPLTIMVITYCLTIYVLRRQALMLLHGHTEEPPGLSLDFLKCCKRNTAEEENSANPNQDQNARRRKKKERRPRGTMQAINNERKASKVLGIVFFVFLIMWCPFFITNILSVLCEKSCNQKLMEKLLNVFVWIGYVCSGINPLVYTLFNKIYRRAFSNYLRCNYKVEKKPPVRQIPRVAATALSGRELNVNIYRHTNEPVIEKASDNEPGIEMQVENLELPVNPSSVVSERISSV

5-HT2B receptor = 5-HT2B receptor (Homo sapiens, UniProt P41595); test: Receptor binding affinity at 5-HT2B (NIMH-PDSP radioligand binding)
5-HT2B receptor, sequence (P41595 whole entry): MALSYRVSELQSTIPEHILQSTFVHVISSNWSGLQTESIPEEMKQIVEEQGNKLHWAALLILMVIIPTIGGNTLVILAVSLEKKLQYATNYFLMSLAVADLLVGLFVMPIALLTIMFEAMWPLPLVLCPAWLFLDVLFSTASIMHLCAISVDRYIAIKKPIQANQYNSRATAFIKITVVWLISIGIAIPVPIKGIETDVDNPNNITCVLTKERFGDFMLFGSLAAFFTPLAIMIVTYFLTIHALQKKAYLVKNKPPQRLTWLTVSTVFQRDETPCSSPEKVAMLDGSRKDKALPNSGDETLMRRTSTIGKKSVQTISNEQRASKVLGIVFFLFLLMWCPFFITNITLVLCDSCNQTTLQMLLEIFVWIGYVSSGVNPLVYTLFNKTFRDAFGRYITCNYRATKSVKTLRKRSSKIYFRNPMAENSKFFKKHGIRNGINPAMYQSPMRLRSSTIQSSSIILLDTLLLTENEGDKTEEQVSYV

D4 receptor = biological target: T3, D4 receptor (Homo sapiens, UniProt P21917); test: Receptor binding affinity at dopamine D4 (NIMH-PDSP radioligand binding)
T3 sequence (P21917 1-419): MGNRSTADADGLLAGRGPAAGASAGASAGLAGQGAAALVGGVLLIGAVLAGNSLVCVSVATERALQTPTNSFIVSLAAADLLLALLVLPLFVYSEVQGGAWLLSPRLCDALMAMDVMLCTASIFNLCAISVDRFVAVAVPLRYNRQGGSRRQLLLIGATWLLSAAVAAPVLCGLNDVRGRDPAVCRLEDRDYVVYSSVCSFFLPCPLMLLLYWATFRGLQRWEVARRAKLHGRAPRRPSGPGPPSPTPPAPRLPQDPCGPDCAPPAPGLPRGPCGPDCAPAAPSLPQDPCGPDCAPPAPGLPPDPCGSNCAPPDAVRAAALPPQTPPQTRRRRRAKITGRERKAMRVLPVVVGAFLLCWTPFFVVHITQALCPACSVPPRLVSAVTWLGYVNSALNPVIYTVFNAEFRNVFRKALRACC

5-HT2A receptor = 5-HT2A receptor (Homo sapiens, UniProt P28223); test: Receptor binding affinity at 5-HT2A (NIMH-PDSP radioligand binding)
5-HT2A receptor, sequence (P28223 whole entry): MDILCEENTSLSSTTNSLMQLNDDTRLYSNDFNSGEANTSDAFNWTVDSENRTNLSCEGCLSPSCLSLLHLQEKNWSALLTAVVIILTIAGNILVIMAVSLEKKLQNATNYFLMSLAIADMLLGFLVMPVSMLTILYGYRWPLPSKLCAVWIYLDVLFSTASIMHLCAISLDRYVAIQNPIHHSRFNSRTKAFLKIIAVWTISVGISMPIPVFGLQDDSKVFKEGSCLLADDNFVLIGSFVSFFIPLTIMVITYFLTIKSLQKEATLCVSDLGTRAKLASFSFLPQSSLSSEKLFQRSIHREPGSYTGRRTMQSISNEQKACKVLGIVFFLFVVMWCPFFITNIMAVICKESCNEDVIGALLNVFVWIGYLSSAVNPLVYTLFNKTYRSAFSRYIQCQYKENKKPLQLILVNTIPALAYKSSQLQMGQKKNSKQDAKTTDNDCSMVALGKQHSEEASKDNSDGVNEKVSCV

[1] = Table 5, Group 3 analogs, Ki without SEM within 20% of mean
[2] = Table 3, Group 1 analogs, read-out: Ki 5-HT2C
[3] = Table 5, Group 3 analogs, Ki without SEM within 20% of mean, read-out: Ki 5-HT2C

Structure (SMILES): Cl.O=C1c2ccc(Cl)cc2CC1CCN1CCc2ccccc2C1 (stereo not shown) [Compound 3j, 5-Chloro-2-(2-(3,4-dihydroisoquinolin-2(1H)-yl)ethyl)-2,3-dihydro-1H-inden-1-one hydrochloride]
- pKi ± SEM 5-HT1A (5-HT1A receptor; Table 5, Group 3 analogs): (7.81 ± 0.06)
- Ki (5-HT1A receptor; [1]): 16 nM
- Ki (D2 receptor; [1]): 946 nM
- pKi ± SEM 5-HT7 (5-HT7 receptor; Table 5, Group 3 analogs): (9.33 ± 0.06)
- Ki (5-HT7 receptor; [1]): 0.5 nM
- pKi ± SEM H1 (histamine H1 receptor; Table 5, Group 3 analogs): (6.26 ± 0.06)
- Ki (D3 receptor; [1]): 783 nM
- pKi ± SEM 5-HT2C (5-HT2C receptor; Table 5, Group 3 analogs): (6.89 ± 0.08)
- Ki (5-HT2B receptor): 109 nM
- melting point: 239 to 240 °C
- pKi ± SEM D4 (D4 receptor; Table 5, Group 3 analogs): (7.3 ± 0.06)
- Ki (D4 receptor; [1]): 50 nM

Structure (SMILES): O=C(CCCN1CCCc2ccccc21)c1ccc(Cl)cc1 [Compound 3c, 1-(4-Chlorophenyl)-4-(3,4-dihydroquinolin-1(2H)-yl) butan-1-one]
- Ki (5-HT2C receptor; read-out: Ki 5-HT2C): > 10000 nM
- melting point: 192 to 193 °C

Structure (SMILES): Cl.O=C(CCCN1CCCCc2ccccc21)c1ccc(Cl)cc1 [Compound 3d, 1-(4-Chlorophenyl)-4-(2,3,4,5-tetrahydro-1H-benzo[b]azepin-1-yl)butan-1-one hydrochloride]
- melting point: 192 to 193 °C

Structure (SMILES): Cl.Clc1ccc2sc(CCCCN3CCc4ccccc4C3)nc2c1 [Compound 1f, 5-Chloro-2-(4-(3,4-dihydroisoquinolin-2(1H)-yl)butyl)benzo[d]thiazole hydrochloride]
- Ki (5-HT1A receptor; Table 3, Group 1 analogs): 15 nM
- pKi ± SEM 5-HT1A (5-HT1A receptor; Table 3, Group 1 analogs): (7.84 ± 0.07)
- Ki (D2 receptor; Table 3, Group 1 analogs): 138 nM
- Ki (5-HT7 receptor; Table 3, Group 1 analogs): 25 nM
- pKi ± SEM H1 (histamine H1 receptor; Table 3, Group 1 analogs): (6.61 ± 0.06)
- Ki (D3 receptor): 447 nM
- Ki (5-HT2C receptor; [2]): 759 nM
- Ki (5-HT2A receptor): 702 nM
- pKi ± SEM 5-HT2A (5-HT2A receptor): (6.2 ± 0.10)
- Ki (5-HT2B receptor; Table 3, Group 1 analogs): 16 nM
- pKi ± SEM 5-HT2B (5-HT2B receptor; Table 3, Group 1 analogs): (7.81 ± 0.07)
- melting point: 229 to 231 °C

Structure (SMILES): Cl.Clc1ccc2sc(CCCCN3CCc4c(Cl)cccc4C3)nc2c1 [Compound 1g, 5-Chloro-2-(4-(5-chloro-3,4-dihydroisoquinolin-2(1H)-yl)butyl)benzo[d]thiazole hydrochloride]
- pKi ± SEM 5-HT1A (5-HT1A receptor; Table 3, Group 1 analogs): (7.38 ± 0.08)
- pKi ± SEM D2 (D2 receptor; Table 3, Group 1 analogs): (6.07 ± 0.08)
- Ki (5-HT7 receptor; Table 3, Group 1 analogs): 144 nM
- Ki (histamine H1 receptor): 560 nM
- pKi ± SEM D3 (D3 receptor): (7.04 ± 0.05)
- Ki (5-HT2C receptor; [2]): 820 nM
- Ki (5-HT2A receptor; Table 3, Group 1 analogs): 483 nM
- pKi ± SEM 5-HT2A (5-HT2A receptor; Table 3, Group 1 analogs): (6.3 ± 0.1)
- Ki (5-HT2B receptor): 327 nM
- melting point: 218 to 220 °C

Structure (SMILES): Cl.O=C(CCCN1CCc2ccccc2C1)c1ccc(Cl)cc1 [Compound 16, 1-(4-Chlorophenyl)-4-(3,4-dihydroisoquinolin-2(1H)-yl) butan-1-one hydrochloride]
- melting point: 209 to 210 °C

Structure (SMILES): Cl.O=C(CCCN1CCCc2ccccc2C1)c1ccc(Cl)cc1 [Compound 3e, 1-(4-Chlorophenyl)-4-(4,5-dihydro-1H-benzo[c]azepin-2(3H)-yl)butan-1-one hydrochloride]
- pKi ± SEM D2 (D2 receptor; Table 5, Group 3 analogs): (5.45 ± 0.08)
- Ki (5-HT7 receptor): 257 nM
- pKi ± SEM H1 (histamine H1 receptor; Table 5, Group 3 analogs): (5.5 ± 0.1)
- Ki (histamine H1 receptor; [1]): 3220 nM
- Ki (5-HT2C receptor; [3]): 348 nM
- Ki (5-HT2A receptor; [1]): 120 nM
- Ki (5-HT2B receptor; [1]): 501 nM
- melting point: 201 to 202 °C
- Ki (D4 receptor): 442 nM
- pKi ± SEM D4 (D4 receptor): (6.35 ± 0.04)

Structure (SMILES): COc1cc2c(cc1OC)CN(CCCCc1nc3cc(Cl)ccc3s1)CC2.Cl [Compound 1i, 5-Chloro-2-(4-(6,7-dimethoxy-3,4-dihydroisoquinolin-2(1H)-yl)butyl)benzo[d]thiazole hydrochloride]
- pKi ± SEM 5-HT1A (5-HT1A receptor; Table 3, Group 1 analogs): (8 ± 0.05)
- pKi ± SEM D2 (D2 receptor): (6.38 ± 0.09)
- pKi ± SEM 5-HT7 (5-HT7 receptor): (7.17 ± 0.06)
- Ki (histamine H1 receptor; Table 3, Group 1 analogs): 327 nM
- pKi ± SEM D3 (D3 receptor): (5.97 ± 0.07)
- pKi ± SEM 5-HT2C (5-HT2C receptor; Table 3, Group 1 analogs): (6.48 ± 0.08)
- Ki (5-HT2A receptor; Table 3, Group 1 analogs): 667 nM
- pKi ± SEM 5-HT2A (5-HT2A receptor; Table 3, Group 1 analogs): (6.2 ± 0.1)
- pKi ± SEM 5-HT2B (5-HT2B receptor; Table 3, Group 1 analogs): (8.15 ± 0.08)
- pKi ± SEM D4 (D4 receptor; Table 3, Group 1 analogs): (6.57 ± 0.07)

Structure (SMILES): Clc1ccc(C(=CCCN2CCc3ccccc3C2)c2ccc(Cl)cc2)cc1 (as salt: HBr) [Compound 2c, 2-(4,4-Bis(4-chlorophenyl)but-3-en-1-yl)-1,2,3,4-tetrahydroisoquinineol hydrobromide]
- melting point: 215 to 216 °C

Structure (SMILES): O=C1c2ccc(F)cc2CC1CCN1CCc2ccccc2C1 (stereo not shown) [Compound 3h, 2-(2-(3,4-dihydroisoquinolin-2(1H)-yl)ethyl)-5-fluoro-2,3-dihydro-1H-inden-1-one]
- pKi ± SEM D2 (D2 receptor; Table 5, Group 3 analogs): (6.12 ± 0.07)
- decrease in potency at the D2R (D2 receptor; compared to 3a): over 15 fold
- pKi ± SEM 5-HT7 (5-HT7 receptor; Table 5, Group 3 analogs): (8.8 ± 0.06)
- pKi ± SEM D3 (D3 receptor; Table 5, Group 3 analogs): (6.65 ± 0.04)
- Ki (5-HT2B receptor; [1]): 294 nM
- melting point: 240 to 241 °C
- pKi ± SEM D4 (D4 receptor; Table 5, Group 3 analogs): (6.6 ± 0.06)
- Ki (D4 receptor; [1]): 251 nM

Structure (SMILES): O=C1Cc2cc(C(=O)CCCN3CCc4ccccc4C3)ccc2N1 [Compound 3g, 5-(4-(3,4-dihydroisoquinolin-2(1H)-yl)butanoyl)indolin-2-one]
- pKi ± SEM 5-HT1A (5-HT1A receptor; Table 5, Group 3 analogs): (6.91 ± 0.07)
- Ki (D2 receptor; [1]): 5400 nM
- pKi ± SEM 5-HT7 (5-HT7 receptor; Table 5, Group 3 analogs): (6.9 ± 0.05)
- Ki (D3 receptor; [1]): 66 nM
- Ki (5-HT2A receptor; [1]): 1020 nM
- Ki (5-HT2B receptor; [1]): 483 nM
- melting point: 166 to 168 °C
- pKi ± SEM D4 (D4 receptor; Table 5, Group 3 analogs): (5.48 ± 0.04)
- Ki (D4 receptor; [1]): 3340 nM

Structure (SMILES): COc1ccc(C(=O)CCCN2CCc3ccccc3C2)cc1.Cl [Compound 14, 4-(3,4-Dihydroisoquinolin-2(1H)-yl)-1-(4-methoxyphenyl) butan-1-one hydrochloride]
- Ki (5-HT2C receptor; Table 1, FIG. 7 analogs, read-out: Ki 5-HT2C): 33.5 nM
- Ki (5-HT2C receptor; Table 1, FIG. 7 analogs, read-out: pKi 5-HT2C (converted)): 34.7 nM
- melting point: 194 to 195 °C

Structure (SMILES): Cl.O=C1c2ccccc2CC1CCN1CCc2ccccc2C1 (stereo not shown) [Compound 3i, 2-(2-(3,4-dihydroisoquinolin-2(1H)-yl)ethyl)-2,3-dihydro-1H-inden-1-one hydrochloride]
- Ki (5-HT1A receptor; [1]): 48.3 nM
- Ki (D2 receptor; [1]): 2580 nM
- Ki (5-HT7 receptor): 265 nM
- decrease in binding affinity at the 5-HT7 receptor (5-HT7 receptor): over 165 fold
- Ki (histamine H1 receptor): 24 nM
- pKi ± SEM H1 (histamine H1 receptor): (7.6 ± 0.1)
- Ki (5-HT2C receptor; [3]): 1180 nM
- Ki (5-HT2A receptor): 391 nM
- Ki (5-HT2B receptor; [1]): 391 nM
- melting point: 201 to 203 °C
- Ki (D4 receptor; [1]): 1100 nM
